Test results published in the NIST ThermoML archive (doi:10.1016/j.fluid.2012.01.022).
± gives the expanded uncertainty stated by the source.

Assays:
[1] = Crystal; DTA
[2] = Molar enthalpy of transition or fusion; conditions: Crystal; DSC

Q: Which results are given for `NNC(=O)c1ccncc1` [isonicotinic acid hydrazide]?
A: Normal melting temperature [1]: 172.69 ± 1.1 °C; Molar enthalpy of transition or fusion [2]: 6.67 ± 0.191 kcal/mol
